Measurements from US9776972B2, “Pyrazole derivatives as arginine methyltransferase inhibitors and uses thereof” (priority 2013, dated 2017).
Read-outs that look alike come from different tables or passages of the source.

How the values were obtained:
human PRMT6 = molecular target: T1, human PRMT6 (Homo sapiens, UniProt Q96LA8); test: PRMT6 Biochemical Assay (3H-SAM Flashplate, peptide substrate); conditions: Biochemical IC50 PRMT6, single experiment or average of multiple experiments
T1 construct: Flag-PRMT6-His; made in house; host or cells: HEK 293F cells (BacMam baculovirus)
Summary of the method: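 Methylation of a biotin-tagged H4 (36-50) peptide by ³H-SAM was quantified by streptavidin Flashplate capture and scintillation counts (dpm/cpm). Before SAM/peptide addition, Flag-PRMT6-His was preincubated with compound for 30 min at room temperature in Bicine buffer, pH 7.6.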

[1] = system: mono-methyl arginine in RKO cells; test: RKO Methylation Assay, In Cell Western (ICW) for mono-methyl arginine and DNA content; type: cell-based; conditions: Homo sapiens, RKO, 72 h
Summary of the method: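 After fixation, mono-methyl arginine and DNA (DRAQ5) were measured by infrared In-Cell Western imaging at 700/800 nm in RKO cells exposed to compounds for 72 hours. Percent activation used DMSO wells as minimum and 20 μM reference compound as maximum; EC30 curves fitted on triplicate wells.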

[2] = RKO cells, 72 hours, mono-methyl arginine, percent activation, single experiment or average of multiple experiments, read-out: EC30 (In Cell Western data, Numerical)

T1 sequence (Q96LA8 with tags, fused parts or gaps): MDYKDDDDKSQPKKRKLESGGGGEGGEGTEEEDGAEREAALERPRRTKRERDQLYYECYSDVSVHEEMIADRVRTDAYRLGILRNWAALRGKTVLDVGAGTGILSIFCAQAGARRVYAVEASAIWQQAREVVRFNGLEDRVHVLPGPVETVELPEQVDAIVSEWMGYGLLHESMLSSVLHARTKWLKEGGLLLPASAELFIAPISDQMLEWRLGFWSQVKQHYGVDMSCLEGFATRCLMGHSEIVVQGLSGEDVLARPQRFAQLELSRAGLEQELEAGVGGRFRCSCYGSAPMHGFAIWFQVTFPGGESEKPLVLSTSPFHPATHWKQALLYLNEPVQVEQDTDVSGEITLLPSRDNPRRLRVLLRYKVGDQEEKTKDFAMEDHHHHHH

SMILES	IC50 (human PRMT6) [nM]	EC30 [1, 2] [µM]	EC30 ([1]; read-out: EC30 (In Cell Western data, Numerical, μM)) [µM]
CNCCN(C)Cc1c[nH]nc1-c1ccc(Oc2ccccc2)c(C#N)c1 [Compound 221]	6.72	0.413	
CN(CCN)Cc1c(-c2ccc(C#N)cc2)ncn1C [Compound 222]	1160	> 20	
CN(CCN)Cc1c[nH]nc1-c1ccc(Oc2ccccc2)c(F)c1 [Compound 224, N^1-((3-(3-fluoro-4-phenoxyphenyl)-1H-pyrazol-4-yl)methyl)-N^1-methylethane-1,2-diamine]	1.98		0.27
CN(CCN)Cc1c[nH]nc1-c1ccc(Oc2ccc(F)cc2)cc1 [Compound 225, N^1-((3-(4-(4-fluorophenoxy)phenyl)-1H-pyrazol-4-yl)methyl)-N^1-methylethane-1,2-diamine]	1.33	0.688	
CN(CCN)Cc1c[nH]nc1-c1ccc(Oc2ccccc2)c(C(=O)N(C)C)c1 [Compound 226]	13.8	> 20	
CNC(=O)c1cc(-c2n[nH]cc2CN(C)CCN)ccc1Oc1ccccc1 [Compound 227]	11.5	15	
CNCCN(C)Cc1c[nH]nc1-c1ccc(OCCCOC)c(Cl)c1 [Compound 228]	8.22	0.279	
